The supplement of paper PMC10307832

Experiments:
Assay in all cases: relative viability (nuclei count vs DMSO), 5 days (fraction); higher = more cells survive
AZD6482 + Linsitinib = compound: Cc1cc([C@@H](C)Nc2ccccc2C(=O)O)c2nc(N3CCOCC3)cc(=O)n2c1 [AZD6482] + C[C@]1(O)C[C@@H](c2nc(-c3ccc4ccc(-c5ccccc5)nc4c3)c3c(N)nccn32)C1 [Linsitinib] (partner 1 µM)
Outline: (§1)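 A single step with final 0.05% Triton X-100, 1% formaldehyde and 1 ug/ml Hoechst fixed the cells and stained nuclei 5 days after treatment. Lung cancer cell lines in 1536-well plates had been treated by pin tool the day after seeding with one drug alone or a fixed anchor-drug dose plus five library-drug doses (not always all listed) in √10 steps, and nuclei were counted on 4× images. Relative viability is the ratio of nuclei in treated wells to nuclei in vehicle wells, taken as the median of duplicate plates.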

AZD6482 + Navitoclax = compound: Cc1cc([C@@H](C)Nc2ccccc2C(=O)O)c2nc(N3CCOCC3)cc(=O)n2c1 [AZD6482] + CC1(C)CCC(c2ccc(Cl)cc2)=C(CN2CCN(c3ccc(C(=O)NS(=O)(=O)c4ccc(N[C@H](CCN5CCOCC5)CSc5ccccc5)c(S(=O)(=O)C(F)(F)F)c4)cc3)CC2)C1 [Navitoclax] (partner 0.5 µM)
Outline: as §1

AZD6482 + Palbociclib = compound: Cc1cc([C@@H](C)Nc2ccccc2C(=O)O)c2nc(N3CCOCC3)cc(=O)n2c1 [AZD6482] + CC(=O)c1c(C)c2cnc(Nc3ccc(N4CCNCC4)cn3)nc2n(C2CCCC2)c1=O [Palbociclib] (partner 0.5 µM)
Outline: as §1

[1] = compound: COc1cc2nc(N3CCCN(C)CC3)nc(NC3CCN(Cc4ccccc4)CC3)c2cc1OC + Cc1cc(Nc2cc(N3CCN(C)CC3)nc(Sc3ccc(NC(=O)C4CC4)cc3)n2)n[nH]1 [Tozasertib] (partner 0.1 µM)
Outline: as §1

| Cell Line | relative viability (AZD6482 + Linsitinib; first compound 0.08 µM) | relative viability (AZD6482 + Linsitinib; first compound 0.253 µM) | relative viability (AZD6482 + Linsitinib; first compound 0.8 µM) | relative viability (AZD6482 + Linsitinib; first compound 2.53 µM) | relative viability (AZD6482 + Linsitinib; first compound 8 µM) | relative viability (AZD6482 + Navitoclax; first compound 0.08 µM) | relative viability (AZD6482 + Navitoclax; first compound 0.253 µM) | relative viability (AZD6482 + Navitoclax; first compound 0.8 µM) | relative viability (AZD6482 + Navitoclax; first compound 2.53 µM) | relative viability (AZD6482 + Navitoclax; first compound 8 µM) | relative viability (AZD6482 + Palbociclib; first compound 0.08 µM) | relative viability (AZD6482 + Palbociclib; first compound 0.253 µM) | relative viability (AZD6482 + Palbociclib; first compound 0.8 µM) | relative viability (AZD6482 + Palbociclib; first compound 2.53 µM) | relative viability (AZD6482 + Palbociclib; first compound 8 µM) | relative viability ([1]; first compound 0.2 µM) | relative viability ([1]; first compound 0.6325 µM) | relative viability ([1]; first compound 2 µM) | relative viability ([1]; first compound 6.325 µM) |
| --- | --- | --- | --- | --- | --- | --- | --- | --- | --- | --- | --- | --- | --- | --- | --- | --- | --- | --- | --- |
| NCI-H1975 | 0.748 | 0.938 | 0.874 | 0.739 | 0.592 | 0.919 | 1.05 | 1.17 | 0.856 | 0.786 | 0.439 | 0.558 | 0.623 | 0.562 | 0.421 | 0.797 | 0.804 | 0.999 | 0.832 |
| CAL-12T | 0.711 | 0.604 | 0.632 | 0.273 | 0.445 | 1.13 | 1.29 | 1.29 | 0.648 | 1.23 | 0.416 | 0.314 | 0.343 | 0.518 | 0.286 | 0.363 | 0.381 | 0.365 | 0.323 |
| NCI-H1623 |  |  |  |  |  |  |  |  |  |  |  |  |  |  |  | 0.432 | 0.45 | 0.442 | 0.411 |
| HCC-44 | 0.413 | 0.527 | 0.429 | 0.539 | 0.362 | 0.758 | 0.964 | 0.965 | 0.874 | 0.459 | 0.858 | 0.988 | 1.04 | 1.05 | 1.26 | 0.973 | 0.922 | 1.25 | 1.22 |
| EKVX | 0.716 | 0.6 | 0.646 | 0.362 | 0.544 | 0.817 | 0.868 | 0.786 | 0.535 | 0.57 | 0.283 | 0.325 | 0.342 | 0.279 | 0.298 | 0.41 | 0.34 | 0.476 | 0.542 |
| NCI-H1651 | 0.674 | 0.663 | 0.733 | 0.63 | 0.591 | 0.883 | 0.917 | 0.881 | 0.676 | 0.636 | 0.485 | 0.493 | 0.508 | 0.486 | 0.496 | 0.846 | 0.75 | 1.01 | 0.668 |
| NCI-H1944 | 0.929 | 0.834 | 0.922 | 0.688 | 0.622 | 1.02 | 0.953 | 1.03 | 0.887 | 0.821 | 0.293 | 0.313 | 0.295 | 0.285 | 0.211 | 0.248 | 0.277 | 0.268 | 0.28 |
| NCI-H1703 | 1.01 | 0.398 | 0.478 | 0.249 | 0.47 | 0.902 | 0.865 | 0.822 | 0.338 | 0.422 |  |  |  |  |  |  |  |  |  |
| Calu-6 | 0.726 | 0.889 | 0.89 | 0.701 | 0.899 | 0.662 | 0.699 | 0.754 | 0.57 | 0.602 |  |  |  |  |  |  |  |  |  |
| EBC-1 | 0.559 | 0.76 | 0.788 | 0.348 | 0.408 | 0.273 | 0.318 | 0.322 | 0.191 | 0.241 |  |  |  |  |  |  |  |  |  |
| SW 1573 | 0.66 | 0.678 | 0.493 | 0.443 | 0.572 | 0.887 | 0.86 | 0.941 | 0.56 | 0.653 | 0.296 | 0.351 | 0.328 | 0.282 | 0.218 | 0.196 | 0.165 | 0.246 | 0.128 |
| A-427 | 1.02 | 1.1 | 1.17 | 0.951 | 1.1 | 0.861 | 0.903 | 0.916 | 0.757 | 0.947 | 0.462 | 0.528 | 0.495 | 0.502 | 0.553 | 0.188 | 0.221 | 0.238 | 0.279 |
| NCI-H2347 |  | 0.943 | 0.949 | 0.571 | 0.84 |  | 0.423 | 0.445 | 0.283 | 0.235 | 0.35 | 0.389 | 0.406 | 0.394 | 0.389 | 0.568 | 0.604 | 0.743 | 0.64 |
| NCI-H1355 | 0.472 | 0.55 | 0.576 | 0.526 | 0.536 | 0.551 | 0.697 | 0.711 | 0.588 | 0.61 | 0.294 | 0.374 | 0.32 | 0.279 | 0.286 | 0.565 | 0.539 | 0.582 | 0.546 |
| NCI-H358 | 0.545 | 0.795 | 0.679 | 0.293 | 0.528 |  |  |  |  |  | 0.149 | 0.121 | 0.134 | 0.127 | 0.115 | 0.108 | 0.111 | 0.123 | 0.126 |
| PC-3 [JPC-3] | 0.911 | 1.04 | 1.02 | 0.787 | 0.841 | 0.727 | 0.665 | 0.851 | 0.756 | 0.679 | 0.559 | 0.564 | 0.528 | 0.572 | 0.534 | 0.932 | 0.915 | 0.938 | 0.88 |
| NCI-H2228 | 0.48 | 0.38 | 0.38 | 0.469 | 0.428 | 0.738 | 0.963 | 0.803 | 0.634 | 0.616 | 0.374 | 0.565 | 0.682 | 0.653 | 0.679 | 0.254 | 0.311 | 0.265 | 0.257 |
| HOP-62 | 1.1 | 0.836 | 1.12 | 0.67 | 0.841 | 1.19 | 1.17 | 1.28 | 0.791 | 1.12 | 0.504 | 0.525 | 0.486 | 0.457 | 0.407 | 0.406 | 0.371 | 0.401 | 0.441 |
| HARA | 0.691 | 0.974 | 1.11 |  | 0.775 | 1.11 | 1.16 | 1.13 |  | 1.16 | 0.182 | 0.199 | 0.368 | 0.247 | 0.171 | 0.123 | 0.125 | 0.0997 | 0.236 |
